Tests used:
[1] = ANTS/DPX liposome leakage assay, 3POPC/1POPG vesicles; format: biochemical; details: 0.5 mM vesicles; for Peptide Concentration-induced 50% ANTS/DPX leakage at pH 4.8, 3POPC/1POPG Vesicle: pH 4.8, lipid per peptide; for Peptide Concentration-induced 50% ANTS/DPX leakage at pH 7.4, 3POPC/1POPG Vesicle: pH 7.4, lipid per peptide
Experimental: (§1) In brief, 0.5 mM POPC vesicles (grey) or POPC:POPG vesicles (ratio 3:1, black) were incubated with peptide concentrations of 0, 0.02, 0.04, 0.08, 0.16, 0.32, 0.64, 1.25, 2.5, 5, 10, and 20 μM in each A) hydrochloric acid-adjusted phosphate buffered saline (1×, pH 4.8) and B) phosphate buffered saline (1×, pH 7.4).
(§2) The lipids 1-palmitoyl-2-oleoyl-sn-glycero-3-phosphocholine (POPC), 1-palmitoyl-2-oleoyl-snglycero-3-phospho-(1′-rac-glycerol) (POPG) were purchased from Avanti Polar Lipids and dissolved in chloroform. Large unilamellar vesicles (LUVs) were produced by extrusion through 100 nm pore filter using an extruder and filters purchased from Avanti Polar Lipids.
(§3) 5 mM ANTS (8-aminonaphthalene-1,3,6-trisulfonic acid, disodium salt) and 12.5 mM DPX (p-xylene-bis-pyridinium bromide) were entrapped in 0.1 μm diameter extruded vesicles with lipids. Gel filtration chromatography using a Sephadex G-100 (GE Healthcare Life Sciences Inc) was used to remove external free ANTS/DPX from LUVs with entrapped contents. LUVs were diluted to 0.5 mM and used to measure the leakage activity by addition of aliquots of peptides. Leakage was measured after 3 h incubation. 10% Triton was used as the positive control to measure the maximum leakage of the vesicle. Fluorescence emission spectra were recorded using excitation and emission wavelength of 350 nm and 510 nm for ANTS/DPX using a BioTek Synergy H1 Hybrid Multi-Mode Reader.
(§4) Table 4 illustrates peptide concentration-induced 50% ANTS/DPX liposome leakage. 0.5 mM POPC and 3POPC/1POPG vesicles were fixed and incubated with titrated peptide concentration ([…]) each in phosphate buffered saline (1×, pH 7.4) and hydrochloric acid-adjusted phosphate buffered saline (1×, pH 4.8). The values are shown as lipid per peptide. †N-terminus is free, C-terminus: —W—NH2.

[2] = ANTS/DPX liposome leakage assay, POPC vesicles; format: biochemical; details: 0.5 mM vesicles; for Peptide Concentration-induced 50% ANTS/DPX leakage at pH 4.8, POPC Vesicle: pH 4.8, lipid per peptide; for Peptide Concentration-induced 50% ANTS/DPX leakage at pH 7.4, POPC Vesicle: pH 7.4, lipid per peptide
Experimental: as §1, §2, §3, §4

[3] = system: HEK293T (human embryonic kidney cell); experiment: cells; details: 72 h
Text: (§5) HMLER (human mammary endothelial cancer cells), HMLER-shEcad (human mammary endothelial cancer stem cells), and MCF-10A (healthy human mammary endothelial) cells were maintained in Mammary Epithelial Cell Growth Medium (MEGM) with supplements and growth factors: bovine pituitary extract (BPE), hydrocortisone, human epidermal growth factor (hEGF), insulin, and gentamicin/amphotericin-B. HEK293T (human embryonic kidney cell), and U2OS (Homo sapiens bone osteosarcoma) cells were maintained in Dulbecco's Modified Eagle's Medium (DMEM) with a final concentration of 10% fetal bovine serum. The cells were grown in T75 flask at 310 K in a humidified atmosphere containing 5% CO2.
(§6) The colourimetric MTT (3-(4,5-dimethylthiazol-2-yl)-2,5-diphenyltetrazolium bromide) assay was used to determine the toxicity of the anticancer peptides and conventional anticancer drugs. 5×10^3 cells were seeded in each well of a 96-well microplate. The cells were incubated overnight. Elevated concentrations of the compounds (0, 0.1, 0.2, 0.4, 0.8, 1.6, 3.1, 6.3, 12.5, 25, 50 and 100 μM) were added and incubated for 72 hr with a total volume 200 μL. The stock solutions of the compounds were prepared as 5 mM solutions in DMSO and diluted using media or in pure water. The final concentration of DMSO in each well was either 0.5% or 0% and this amount was present in the untreated control. After 72 hr, 20 μL of a 4 mg/mL solution of MTT in PBS was added to each well, and the plate was incubated for an additional 4 hr. The MEGM/MTT mixture was aspirated and 100 μL of DMSO was added to dissolve the resulting purple formazan crystals. The absorbance of the solutions in each well was read at 550 nm wavelength. Absorbance values were normalized to either DMSO-containing or non DMSO-containing control wells and plotted as concentration of test compound versus % cell viability. IC50 values were interpolated from the resulting dose dependent curves.
(§7) The peptides were screened against several different human cell lines and their cytotoxicity were determined. Cell lines utilised include MCF-10A (human breast epithelial cell), HMLER (human breast cancer bulk cell), HMLER-shEcad (human breast cancer stem cell), HEK293T (human embryonic kidney cell), and U2OS (human bone osteosarcoma).

[4] = system: HMLER-shEcad (human breast cancer stem cell); experiment: cells; details: 72 h
Text: as §5, §6, §7

[5] = system: HMLER (human breast cancer bulk cell); experiment: cells; details: 72 h
Text: as §5, §6, §7

[6] = Tryptophan fluorescent binding assay, POPC vesicles; details: 50 μM peptide, PBS pH 7.4, lipid per peptide
Experimental: (§8) In brief, 50 μM peptides were fixed and incubated with titrated POPC vesicles (black) or 3POPC/1POPG vesicles (grey) at concentrations of 0, 12.5, 25, 50, 100, 250, 500, 1000, 2500, and 5000 μM in phosphate buffered saline (1×, pH 7.4). The lipid concentration that causes 50% peptide binding was determined using a tryptophan fluorescent binding assay and the values are shown as lipid per peptide.
as §2
(§9) Peptides (50 μM) and POPC/POPG LUVs (600 μM) were prepared in 10 mM phosphate buffer (pH 7.0). The solutions were incubated and measured after 60 minutes. Excitation was fixed at 280 nm (slit 9 nm) and emission was collected from 300 to 450 nm (slit 9 nm). The spectra were recorded using a Synergy H1 Hybrid Multi-Mode Reader (FIG. 3A) and Cytation™ 5 Cell Imaging Multi-Mode Reader (FIG. 2) from BioTek and were averaged over 3 scans.
(§10) Table 3 illustrates the lipid concentration-induced 50% peptide binding onto a liposome. 50 μM peptide was fixed and incubated with titrated lipid (POPC vesicles or 3POPC/1POPG vesicles) at concentrations of 0, 12.5, 25, 50, 100, 250, 500, 1000, 2500, and 5000 μM in phosphate buffered saline (1×, pH 7.4). The lipid concentration that causes 50% peptide binding was determined using tryptophan fluorescent binding assay and the values are shown as lipid per peptide. †N-terminus is free, C-terminus: —W—NH2.

[7] = Tryptophan fluorescent binding assay, 3POPC/1POPG vesicles; details: 50 μM peptide, PBS pH 7.4, lipid per peptide
Experimental: as §8, §2, §9, §10

[8] = system: U2OS (human bone osteosarcoma); details: 72 h
Text: as §5, §6, §7

| Structure (SMILES) | Peptide Concentration-induced 50% ANTS/DPX leakage at pH 4.8, 3POPC/1POPG Vesicle [1] [L/P] | Peptide Concentration-induced 50% ANTS/DPX leakage at pH 7.4, 3POPC/1POPG Vesicle [1] [L/P] | Peptide Concentration-induced 50% ANTS/DPX leakage at pH 4.8, POPC Vesicle [2] [L/P] | Peptide Concentration-induced 50% ANTS/DPX leakage at pH 7.4, POPC Vesicle [2] [L/P] | IC50 [3] [µM] | IC50 [4] [µM] | IC50 [5] [µM] | Lipid Concentration-induced 50% Peptide Binding, POPC Vesicle [6] [L/P] | Lipid Concentration-induced 50% Peptide Binding, 3POPC/1POPG Vesicle [7] [L/P] | IC50 [8] [µM] |
| --- | --- | --- | --- | --- | --- | --- | --- | --- | --- | --- |
| CC(C)C[C@H](NC(=O)CN)C(=O)N[C@@H](CC(C)C)C(=O)N[C@@H](CCC(=O)O)C(=O)N[C@@H](CC(C)C)C(=O)N[C@@H](CC(C)C)C(=O)N[C@@H](CCCCN)C(=O)N[C@@H](CC(C)C)C(=O)N[C@@H](CC(C)C)C(=O)N[C@@H](CC(C)C)C(=O)N[C@@H](CCC(=O)O)C(=O)N[C@@H](C)C(=O)N[C@@H](C)C(=O)NCC(=O)N[C@@H](Cc1c[nH]c2ccccc12)C(N)=O [EKE] | 438 | 657 | 75 | 738 | 5.15 ± 0.21 | 1.3 ± 0.14 | 1.8 ± 0.28 | 2.75 | 1.63 | 8 ± 0.71 |
| CC(C)C[C@H](NC(=O)CN)C(=O)N[C@@H](CC(C)C)C(=O)N[C@@H](CCC(=O)O)C(=O)N[C@@H](CC(C)C)C(=O)N[C@@H](CC(C)C)C(=O)N[C@@H](CCCCN)C(=O)N[C@@H](CC(C)C)C(=O)N[C@@H](CC(C)C)C(=O)N[C@@H](CC(C)C)C(=O)N[C@@H](Cc1c[nH]cn1)C(=O)N[C@@H](C)C(=O)N[C@@H](C)C(=O)NCC(=O)N[C@@H](Cc1c[nH]c2ccccc12)C(N)=O [EKH] | 88 | 365 | 55 | 608 | 6.65 ± 1.34 | 2.18 ± 0.31 | 2.75 ± 0.07 | 0.75 | 0.19 | 23.8 ± 0.81 |
| CC(C)C[C@H](NC(=O)CN)C(=O)N[C@@H](CC(C)C)C(=O)N[C@@H](CCC(=O)O)C(=O)N[C@@H](CC(C)C)C(=O)N[C@@H](CC(C)C)C(=O)N[C@@H](CCCCN)C(=O)N[C@@H](CC(C)C)C(=O)N[C@@H](CC(C)C)C(=O)N[C@@H](CC(C)C)C(=O)N[C@@H](CCCCN)C(=O)N[C@@H](C)C(=O)N[C@@H](C)C(=O)NCC(=O)N[C@@H](Cc1c[nH]c2ccccc12)C(N)=O [EKK] | 219 | 235 | 60 | 1095 | 3.35 ± 0.49 | 1.19 ± 0.4 | 1.72 ± 0.21 | 1.50 | 0.63 | 12.2 ± 1.84 |
| CC(C)C[C@H](NC(=O)CN)C(=O)N[C@@H](CC(C)C)C(=O)N[C@@H](Cc1c[nH]cn1)C(=O)N[C@@H](CC(C)C)C(=O)N[C@@H](CC(C)C)C(=O)N[C@@H](CCC(=O)O)C(=O)N[C@@H](CC(C)C)C(=O)N[C@@H](CC(C)C)C(=O)N[C@@H](CC(C)C)C(=O)N[C@@H](CCC(=O)O)C(=O)N[C@@H](C)C(=O)N[C@@H](C)C(=O)NCC(=O)N[C@@H](Cc1c[nH]c2ccccc12)C(N)=O [HEE] | 122 | 792 | 100 | 876 | 10.2 ± 0.2 | 4.95 ± 0.49 | 6.5 ± 0.71 | 0.58 | 0.50 | 47.5 ± 11 |
| CC(C)C[C@H](NC(=O)CN)C(=O)N[C@@H](CC(C)C)C(=O)N[C@@H](Cc1c[nH]cn1)C(=O)N[C@@H](CC(C)C)C(=O)N[C@@H](CC(C)C)C(=O)N[C@@H](CCC(=O)O)C(=O)N[C@@H](CC(C)C)C(=O)N[C@@H](CC(C)C)C(=O)N[C@@H](CC(C)C)C(=O)N[C@@H](Cc1c[nH]cn1)C(=O)N[C@@H](C)C(=O)N[C@@H](C)C(=O)NCC(=O)N[C@@H](Cc1c[nH]c2ccccc12)C(N)=O [HEH] | 24 | 505 | 173 | 995 | 8.8 ± 1.7 | 11 ± 1.06 | 28.6 ± 10.8 | 0.88 | 3.50 | 106 ± 14 |
| CC(C)C[C@H](NC(=O)CN)C(=O)N[C@@H](CC(C)C)C(=O)N[C@@H](Cc1c[nH]cn1)C(=O)N[C@@H](CC(C)C)C(=O)N[C@@H](CC(C)C)C(=O)N[C@@H](Cc1c[nH]cn1)C(=O)N[C@@H](CC(C)C)C(=O)N[C@@H](CC(C)C)C(=O)N[C@@H](CC(C)C)C(=O)N[C@@H](CCC(=O)O)C(=O)N[C@@H](C)C(=O)N[C@@H](C)C(=O)NCC(=O)N[C@@H](Cc1c[nH]c2ccccc12)C(N)=O [HHE] | 113 | 411 | 143 | 842 | 18.4 ± 3.75 | 10.8 ± 0.78 | 16.7 ± 2.26 | 1.00 | 0.75 | 53.2 ± 5.3 |

From US20250326794A1, “ANTI-CANCER LEUCINE-RICH PEPTIDES AND USES THEREOF” (KING'S COLLEGE LONDON, priority 2019, published 2025)
